{
  "source": "patent US20250388571A1",
  "about": "“AMP-ACTIVATED PROTEIN KINASE MODULATOR COMPOUNDS AND USES THEREOF” (Biolexis Therapeutics, Inc., priority 2024, published 2025)",
  "key": {"[1]": {"tested_on": "AMPK signal pathway in HSKM cells", "experiment": "Western blot assay, HSKM cells", "format": "cell-based, human"}, "[2]": {"tested_on": "human skeletal muscle cells (HSKM cells)", "experiment": "Glucose uptake assay, human skeletal muscle cells", "format": "cell-based", "experimental": "FIGS. 1-4 show results for cells treated with differing doses of representative compounds of Structure (I) (i.e., compound I-11 in FIG. 1 and compound I-7 in FIG. 2) as well reference compounds (i.e., PF-06409577 in FIG. 3 and MK-8722 in FIG. 4). […] Cells were starved for 3 hours in high glucose DMEM without FBS, then treated with indicated compounds in DMEM without FBS/glucose for 1 hour, and glucose uptake was detected using an uptake glucose kit (Promega). The bars show (from left to right) concentrations of 100 μM, 33 μM, 11 μM, 3.7 μM, 1.23 μM, 0.41 μM, 0.14 μM, 0.045 μM, 0.015 μM, 0.005 μM, 0 μM, and insulin.\n(§1) Human skeletal myoblasts were obtained (Thermofisher; BYU) and cultured in DMEM/F12 medium with 10% FBS. For differentiation, 2% horse serum low glucose DMEM medium was employed for 72 hours. Human cardiomyocytes cells (HCM cells; Promocell) were cultured in myocyte growth medium (Promocell). Human preadipocyte HWP-c cells (Promocell) were obtained from upper arm of diabetic II donor. Human preadipocyte HWP-c cells (Promocell) were obtained from abdomen of diabetic II donor. For differentiating human preadipocytes, cells were cultured in preadipocyte growth medium to total confluency stage. The growth medium was replaced with preadipocyte differentiation medium for 72 hours, then changed to PromoCell adipocyte nutrition medium to complete the differentiation process. THLE-2 cells were cultured in BEGM from Lonza/Clonetics Corporation, Walkersville, MD 21793 (BEGM Bullet Kit; CC3170). HepG2, L6 and C2Cl2 cells were cultured in EMEM medium.\n(§2) After differentiation myoblasts, preadipocyte cells were starved by removing the medium and adding 100 μL DMEM without serum. The medium was then replaced with 100 μL DMEM±1 μM insulin at indicated concentration of representative compounds without serum or glucose. The cells were then incubated for 1 hour at 37° C. in 5% CO2. The cells were then removed from the medium and 50 μL of 0.1 mM 2DG in PBS was added. Cells were incubated for 30 minutes at 25° C. 25 μL of Stop Buffer was added and samples were mixed. 25 μL of Neutralization Buffer was then added and mixed. 100 μL of 2DG6P Detection Reagent was then added and mixed. Samples were then incubated for 1 hour at 25° C. Luminescence was then recorded with 0.3-1 second integration on a luminometer."}, "[3]": {"tested_on": "Human white preadipocyte (HWP) cells", "experiment": "Glucose uptake assay, human white preadipocyte cells", "format": "cell-based", "experimental": "(§3) FIGS. 5-8 show results for glucose update assays in Human white preadipocyte (HWP) cells (Promocell, cat. No. C-12735) when treated with compound I-11 (FIG. 5), compound I-7 (FIG. 6), MK-8722 (FIG. 7), and PF-06409577 (FIG. 8). HWP cells (subcutaneous upper arm of obese patient) were starved for 3 hours in DMEM without FBS, treated with the components noted above in […] DMEM without FBS/glucose for 1 hour, and glucose uptake was detected using a glucose uptake kit (Promega). […] The bars show (from left to right) concentrations of 100 μM, 33 μM, 11 μM, 3.7 μM, 1.23 μM, 0.41 μM, 0.14 μM, 0.045 μM, 0.015 μM, 0.005 μM, 0 μM, and insulin.\nas §3, with “9-12” for “5-8”, “9),” for “5),”, “10),” for “6),”, “11),” for “7),”, “12).” for “8).”, “(abdomen cells)” for “(subcutaneous upper arm of obese patient)”\nas §1, §2"}, "in vivo": {"experiment": "in vivo", "format": "in vivo", "conditions": "dog", "experimental": "A total of 3 animals were segregated in to one group and each animal received oral dose followed by intravenous infusion (15 minutes) as a cross over design with 7 days of no dose interval between periods. […] Similarly, in period 2 after 7 days of no dose interval, animals were received intravenous infusion for 15 min at a dose of 1 mg/kg via saphenous vein at a dose volume of 1 mL/kg, each dog was observed after administration of the test item for presence or absence of clinical signs.\nA total of 11 time points for oral and 12 blood samples for IV per each animal were collected, approximately 1 mL were collected from each dog in pre-labeled Eppendorf tubes containing 20 μL/mL of 200 mM K2 EDTA. Blood was withdrawn at scheduled time points via cephalic vein in pre-labelled Eppendorf tubes. The pre-dose blood sample was collected before to drug administration. Post dose samples were collected within stipulated time. The blood samples were kept on crushed ice to maintain the temperature until centrifugation. Plasma was separated and stored under −70° C. […] The PK parameters were evaluated using Phoenix WinNonlin® Ent-Version 8.3 by non-compartmental analysis."}},
  "note": "Entries after “also recorded” stand apart in the source; their conditions may differ.",
  "data": [
    {"smiles": "O=c1[nH]c(-c2c[nH]c3cc(F)c(-c4ccc(C5(O)CCC5)cc4)c(F)c23)no1", "note": "[Compound I-11, 3-(4,6-difluoro-5-(4-(1-hydroxycyclobutyl)phenyl)-1H-indol-3-yl)-1,2,4-oxadiazol-5(4H)-one]", "values": [
      {"measurement": "AMPK isoform expression", "setting": "[1]; HSKM cells", "result": "increased AMPKα2β1γ3 expression"},
      {"measurement": "potency compared with reference compound MK-8722 (p-ACC, p-AMPK)", "setting": "[1]; HSKM cells", "result": "more potency activity"},
      {"measurement": "p-ACC and p-AMPK induction", "setting": "[1]; HSKM cells, 1 hour", "result": "dosage-dependent manner"},
      {"measurement": "p-AMPK, p-ACC, and p-Raptor expression", "setting": "[1]; some high dosage groups, cell type not given", "result": "could induce"},
      {"measurement": "glucose uptake compared with reference compounds, based on RLU values", "setting": "[2]", "result": "much more glucose uptake compared with reference compounds"},
      {"measurement": "dose dependence of glucose uptake (printed: activation of insulin / AMPK activation)", "setting": "[2]; 100 μM to 0.005 μM, 1 hour", "result": "dose-dependent manner; also recorded: dose dependence"},
      {"measurement": "glucose uptake", "setting": "[2]; starved, treated 1 hour", "result": "induced glucose uptake; also recorded: increased glucose uptake"},
      {"measurement": "dose dependence of glucose uptake (printed: activates insulin)", "setting": "[3]; HWP cells, subcutaneous upper arm of obese patient, 100 μM to 0.005 μM, 1 hour", "result": "dose dependent manner"},
      {"measurement": "glucose uptake", "setting": "[3]; human adipocyte cells / HWP-c cells, donor site not stated", "result": "induced glucose uptake; also recorded: dosage-dependent manner"},
      {"measurement": "systemic exposure, oral administration", "setting": "in vivo; 5 mg/kg oral", "result": "low systemic exposure"},
      {"measurement": "bioavailability", "setting": "in vivo; male, Beagle, plasma, 5 mg/kg oral compared with intravenous infusion (1 mg/kg)", "result": "5.27 ± 2.94", "unit": "%"}
    ]}
  ]
}
